From ChEMBL document CHEMBL2424545, “Structure-efficiency relationship of [1,2,4]triazol-3-ylamines as novel nicotinamide isosteres that inhibit tankyrases” (J Med Chem, 2013)
Values after ≈ are worked out from the molar mass of the structure shown.

Columns and labels:
[1] = Inhibition of Wnt signaling in human HEK293 cells by STF luciferase reporter gene assay
[2] = target: T1, Poly [ADP-ribose] polymerase tankyrase-2 (Homo sapiens, UniProt Q9H2K2); assay: Inhibition of N-terminal GST-tagged TNKS2 (unknown origin) expressed in baculovirus infected sf21 cells after 60 mins by LC-MS analysis
T1 sequence (Q9H2K2 whole entry): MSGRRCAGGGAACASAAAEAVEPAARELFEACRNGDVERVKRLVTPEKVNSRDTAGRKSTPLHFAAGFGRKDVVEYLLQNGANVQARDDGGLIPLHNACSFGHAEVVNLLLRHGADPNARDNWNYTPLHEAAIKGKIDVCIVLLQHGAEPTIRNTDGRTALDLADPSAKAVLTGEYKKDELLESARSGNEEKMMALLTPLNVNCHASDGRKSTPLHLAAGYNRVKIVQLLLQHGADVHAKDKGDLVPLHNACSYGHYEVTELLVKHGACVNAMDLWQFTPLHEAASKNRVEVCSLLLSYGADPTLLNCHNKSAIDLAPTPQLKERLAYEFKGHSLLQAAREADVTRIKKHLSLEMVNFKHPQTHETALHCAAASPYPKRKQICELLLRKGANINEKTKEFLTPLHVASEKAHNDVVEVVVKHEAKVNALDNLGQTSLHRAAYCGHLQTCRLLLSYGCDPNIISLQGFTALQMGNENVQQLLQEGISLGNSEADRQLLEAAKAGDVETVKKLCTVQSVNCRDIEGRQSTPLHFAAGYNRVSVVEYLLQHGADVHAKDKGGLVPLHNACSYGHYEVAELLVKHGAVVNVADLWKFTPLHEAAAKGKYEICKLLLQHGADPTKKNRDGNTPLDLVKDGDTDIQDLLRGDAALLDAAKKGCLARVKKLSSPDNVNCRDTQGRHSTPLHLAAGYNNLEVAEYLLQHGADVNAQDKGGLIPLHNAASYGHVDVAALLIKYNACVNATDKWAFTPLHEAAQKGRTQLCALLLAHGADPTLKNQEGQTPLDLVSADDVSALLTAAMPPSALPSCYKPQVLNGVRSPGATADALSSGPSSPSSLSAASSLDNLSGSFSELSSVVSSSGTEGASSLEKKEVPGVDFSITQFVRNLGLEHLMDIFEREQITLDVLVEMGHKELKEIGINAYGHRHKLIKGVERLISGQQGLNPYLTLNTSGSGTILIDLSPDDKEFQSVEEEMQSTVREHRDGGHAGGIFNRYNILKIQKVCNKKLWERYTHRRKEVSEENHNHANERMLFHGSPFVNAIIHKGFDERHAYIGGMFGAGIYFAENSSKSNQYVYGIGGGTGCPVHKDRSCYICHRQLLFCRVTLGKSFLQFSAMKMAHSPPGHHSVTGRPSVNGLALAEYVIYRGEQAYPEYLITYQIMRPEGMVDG

[3] = target: Poly [ADP-ribose] polymerase 2 (Homo sapiens, UniProt Q9UGN5); assay: Inhibition of PARP2 (unknown origin) after 60 mins by LC-MS analysis
[4] = target: T2, Poly [ADP-ribose] polymerase tankyrase-1 (Homo sapiens, UniProt O95271); assay: Inhibition of N-terminal GST-tagged human TNKS1 expressed in baculovirus infected sf21 cells after 60 mins by LC-MS analysis
T2 sequence (O95271 whole entry): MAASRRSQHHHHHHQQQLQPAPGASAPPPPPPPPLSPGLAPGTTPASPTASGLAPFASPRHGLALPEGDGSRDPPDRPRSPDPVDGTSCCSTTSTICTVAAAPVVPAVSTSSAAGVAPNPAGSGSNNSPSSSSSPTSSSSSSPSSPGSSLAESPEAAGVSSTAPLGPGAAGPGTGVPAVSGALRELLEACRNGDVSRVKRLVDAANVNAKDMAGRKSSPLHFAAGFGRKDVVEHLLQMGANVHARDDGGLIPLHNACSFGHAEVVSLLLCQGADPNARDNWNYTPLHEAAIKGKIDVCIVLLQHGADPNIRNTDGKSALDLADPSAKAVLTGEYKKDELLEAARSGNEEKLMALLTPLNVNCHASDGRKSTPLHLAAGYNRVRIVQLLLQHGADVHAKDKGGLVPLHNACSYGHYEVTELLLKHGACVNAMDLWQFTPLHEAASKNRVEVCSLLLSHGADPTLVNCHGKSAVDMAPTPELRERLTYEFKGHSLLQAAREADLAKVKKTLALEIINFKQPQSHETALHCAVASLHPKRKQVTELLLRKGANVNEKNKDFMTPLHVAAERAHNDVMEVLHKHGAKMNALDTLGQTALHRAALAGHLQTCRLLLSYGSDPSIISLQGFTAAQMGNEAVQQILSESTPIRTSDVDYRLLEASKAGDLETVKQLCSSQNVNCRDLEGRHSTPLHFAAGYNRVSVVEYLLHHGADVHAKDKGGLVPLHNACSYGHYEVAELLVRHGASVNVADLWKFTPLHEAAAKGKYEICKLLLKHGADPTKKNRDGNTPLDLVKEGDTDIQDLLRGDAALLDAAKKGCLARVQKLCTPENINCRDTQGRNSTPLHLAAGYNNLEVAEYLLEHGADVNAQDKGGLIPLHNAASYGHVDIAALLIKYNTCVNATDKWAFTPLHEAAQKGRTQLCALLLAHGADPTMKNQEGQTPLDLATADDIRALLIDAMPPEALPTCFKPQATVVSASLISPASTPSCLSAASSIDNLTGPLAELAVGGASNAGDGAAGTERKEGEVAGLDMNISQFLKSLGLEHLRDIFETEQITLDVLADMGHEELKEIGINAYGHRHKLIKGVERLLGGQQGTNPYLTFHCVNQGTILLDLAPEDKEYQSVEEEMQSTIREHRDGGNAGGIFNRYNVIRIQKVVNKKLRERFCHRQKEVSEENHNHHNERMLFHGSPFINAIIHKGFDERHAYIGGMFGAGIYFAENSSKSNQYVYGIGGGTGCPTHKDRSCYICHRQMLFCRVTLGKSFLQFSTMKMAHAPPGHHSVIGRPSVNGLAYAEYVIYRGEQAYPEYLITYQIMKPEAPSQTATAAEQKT

[5] = Inhibition of TNKS in human SW480 cells assessed as stabilization of axin2 after 24 hrs by ELISA; format: cell-based
[6] = Hepatic extraction ratio in mouse liver microsomes; format: ADME, Microsome; details: read-out: ERH
[7] = Hepatic extraction ratio in human liver microsomes; format: ADME, Microsome; details: read-out: ERH
[8] = Solubility of the compound at pH 6.8; format: physicochemical; details: buffer
[9] = AUC (last) in C57BL/6 mouse at 1 mg/kg, iv; format: ADME, organism-based; design: time 0 - last, dose 1 mg/kg, route intravenous; details: plasma
[10] = AUC (last) in C57BL/6 mouse at 5 mg/kg, po; format: ADME, organism-based; design: time 0 - last, dose 5 mg/kg, route oral; details: plasma
[11] = Volume of distribution at steady state in C57BL/6 mouse at 1 mg/kg, iv; format: ADME, organism-based; design: dose 1 mg/kg, route intravenous; details: in vivo, read-out: Vdss(app)
Mus musculus = assay: T(last) in C57BL/6 mouse at 1 mg/kg, iv; format: ADME, organism-based; design: dose 1 mg/kg, route intravenous; details: in vivo
[12] = Half life in C57BL/6 mouse at 1 mg/kg, iv; format: ADME, organism-based; design: dose 1 mg/kg, route intravenous; details: in vivo
[13] = Mean residence time (0 to t) in C57BL/6 mouse at 1 mg/kg, iv; format: ADME, organism-based; design: dose 1 mg/kg, route intravenous; details: in vivo
[14] = Cmax in C57BL/6 mouse at 1 mg/kg, iv; format: ADME, organism-based; design: dose 1 mg/kg, route intravenous; details: in vivo
[15] = Cmax in C57BL/6 mouse at 5 mg/kg, po; format: ADME, organism-based; design: dose 5 mg/kg, route oral; details: in vivo
[16] = Tmax in C57BL/6 mouse at 1 mg/kg, iv; format: ADME, organism-based; design: dose 1 mg/kg, route intravenous; details: in vivo
[17] = Oral bioavailability in C57BL/6 mouse at 5 mg/kg; format: ADME, organism-based; details: in vivo
[18] = Tmax in C57BL/6 mouse at 5 mg/kg, po; format: ADME, organism-based; design: dose 5 mg/kg, route oral; details: in vivo
[19] = Plasma clearance in C57BL/6 mouse at 1 mg/kg, iv; format: ADME, organism-based; design: dose 1 mg/kg, route intravenous
[20] = target: Poly [ADP-ribose] polymerase 1 (Homo sapiens, UniProt P09874)
Description: Inhibition of human PARP1 after 60 mins by LC-MS analysis

[21] = Plasma clearance in iv dosed Sprague-Dawley rat; format: ADME, organism-based
[22] = Volume of distribution in iv dosed Sprague-Dawley rat; format: ADME, organism-based; details: in vivo

Sequence of Poly [ADP-ribose] polymerase 1 (P09874 whole entry): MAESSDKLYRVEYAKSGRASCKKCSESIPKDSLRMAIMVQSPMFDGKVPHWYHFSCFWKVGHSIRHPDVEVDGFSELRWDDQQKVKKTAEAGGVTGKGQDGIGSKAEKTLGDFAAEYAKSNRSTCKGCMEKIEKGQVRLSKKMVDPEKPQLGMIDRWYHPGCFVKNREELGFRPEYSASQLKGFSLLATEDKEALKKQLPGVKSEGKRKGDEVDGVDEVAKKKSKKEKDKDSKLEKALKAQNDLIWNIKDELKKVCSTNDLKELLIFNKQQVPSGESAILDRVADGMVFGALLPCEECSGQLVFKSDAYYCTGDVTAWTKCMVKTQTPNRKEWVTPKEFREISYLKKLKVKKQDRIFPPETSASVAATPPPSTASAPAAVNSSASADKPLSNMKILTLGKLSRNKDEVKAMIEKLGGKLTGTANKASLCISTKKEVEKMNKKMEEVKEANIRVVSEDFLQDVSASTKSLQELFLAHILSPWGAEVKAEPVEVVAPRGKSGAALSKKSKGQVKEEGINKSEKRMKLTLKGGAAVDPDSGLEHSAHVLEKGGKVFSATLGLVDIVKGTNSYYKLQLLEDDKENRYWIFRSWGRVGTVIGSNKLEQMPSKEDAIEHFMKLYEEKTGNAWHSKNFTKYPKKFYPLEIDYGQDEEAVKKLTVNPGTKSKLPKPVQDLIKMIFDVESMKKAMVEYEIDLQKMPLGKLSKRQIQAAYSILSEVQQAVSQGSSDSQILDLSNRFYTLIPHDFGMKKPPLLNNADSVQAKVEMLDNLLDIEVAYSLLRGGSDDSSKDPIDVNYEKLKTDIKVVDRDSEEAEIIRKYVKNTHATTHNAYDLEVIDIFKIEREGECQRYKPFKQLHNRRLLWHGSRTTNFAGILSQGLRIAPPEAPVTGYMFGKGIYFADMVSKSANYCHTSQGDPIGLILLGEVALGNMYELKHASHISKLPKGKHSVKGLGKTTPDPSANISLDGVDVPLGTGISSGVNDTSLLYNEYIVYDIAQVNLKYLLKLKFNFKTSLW
Sequence of Poly [ADP-ribose] polymerase 2 (Q9UGN5 whole entry): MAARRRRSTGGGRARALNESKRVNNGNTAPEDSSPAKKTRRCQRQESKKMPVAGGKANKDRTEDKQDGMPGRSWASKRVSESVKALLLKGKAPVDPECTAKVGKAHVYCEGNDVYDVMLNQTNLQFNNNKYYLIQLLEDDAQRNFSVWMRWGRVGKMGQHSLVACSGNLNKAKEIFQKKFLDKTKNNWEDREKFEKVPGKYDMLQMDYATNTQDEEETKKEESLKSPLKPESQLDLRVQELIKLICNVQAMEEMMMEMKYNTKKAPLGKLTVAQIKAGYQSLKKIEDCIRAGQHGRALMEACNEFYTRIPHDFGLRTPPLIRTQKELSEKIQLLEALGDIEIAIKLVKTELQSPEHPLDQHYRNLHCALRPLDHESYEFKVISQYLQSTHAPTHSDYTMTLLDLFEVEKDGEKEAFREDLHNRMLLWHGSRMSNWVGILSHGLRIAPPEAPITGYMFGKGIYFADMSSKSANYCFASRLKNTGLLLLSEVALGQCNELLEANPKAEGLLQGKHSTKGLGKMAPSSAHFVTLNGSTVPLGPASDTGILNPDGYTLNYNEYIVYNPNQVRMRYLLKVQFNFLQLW

Compound | IC50 [1] | IC50 [2] | further results
Oc1nc(-c2ccc(C(F)(F)F)cc2)nc2c1CSCC2 | 78 nM |  | 
O=C(Cc1ccccc1)Nc1nnc2n1CCS2 | 7270 nM | 239 nM | 
CC(C)(C)c1ccc(C(=O)Nc2nnc3n2CCS3)cc1 | 2390 nM | 31 nM | IC50 [3]: > 19000 nM; IC50 [4]: 299 nM; IC50 [5]: > 10000 nM; hepatic extraction ratio [6]: 0.84; hepatic extraction ratio [7]: 0.36; solubility [8]: > 100 µM
CC(C)CC(=O)Nc1nnc2n1CCS2 | 6450 nM | 103 nM | AUC(0-t) [9]: 4.73 µM·h; AUC(0-t) [10]: 8.6 µM·h; Vd [11]: 0.1 L/kg; Tlast (Mus musculus): 1 h; half-life [12]: 6 min; MRT last [13]: 6 min; Cmax [14]: 19.1 µM; Cmax [15]: 13.7 µM; Tmax [16]: 18 min; bioavailability [17]: 36%; Tmax [18]: 18 min; IC50 [4]: 395 nM; IC50 [5]: 7670 nM; hepatic extraction ratio [6]: 0.29; hepatic extraction ratio [7]: 0.17; solubility [8]: > 1000 µM; clearance [19]: 17 mL/min/kg; IC50 [20]: 55300 nM
O=C(Nc1nnc2n1CCS2)c1ccccc1 |  | 250 nM | 
CC(=O)Nc1nnc2n1CCS2 |  | > 19000 nM | 
Cc1n[nH]c(C)c1CCC(=O)Nc1nnc2n1CCS2 | > 10000 nM | 195 nM | 
CC(C)(C)c1ccc(C(=O)Nc2nnc3n2CCCS3)cc1 | 47800 nM | 353 nM | IC50 [3]: > 19000 nM
O=C(Nc1nnc2n1CCCS2)c1ccccc1 |  | 2760 nM | 
CC(C)CC(=O)Nc1nnc2n1CCCS2 |  | 980 nM | 
CC(=O)Nc1nnc2n1CCCS2 |  | > 19000 nM | 
O=C(Nc1nnc2n1CCS2)C1CC1 | > 50000 nM | 2010 nM | 
O=C(Nc1nnc2n1CCS2)C1CCC1 | 13800 nM | 264 nM | 
O=C(Nc1nnc2n1CCS2)C1CCCC1 | 12800 nM | 220 nM | 
O=C(Nc1nnc2n1CCS2)C1CCCCC1 | 1540 nM | 70 nM | 
O=C(CC1CCCCC1)Nc1nnc2n1CCS2 | 429 nM | 20 nM | 
O=C(CC1CCOCC1)Nc1nnc2n1CCS2 | 10300 nM | 202 nM | 
O=C(CCC1CCCC1)Nc1nnc2n1CCS2 | 194 nM | 9 nM | IC50 [4]: 28 nM; IC50 [5]: 3080 nM; hepatic extraction ratio [6]: 0.91; hepatic extraction ratio [7]: 0.68; solubility [8]: 630 µM (≈ 168 µg/mL)

Compound | IC50 [1] | IC50 [2] | further results
O=C(CCC1CCCCC1)Nc1nnc2n1CCS2 | 169 nM | 8 nM | IC50 [4]: 32 nM; IC50 [5]: > 10000 nM; hepatic extraction ratio [6]: 0.95; hepatic extraction ratio [7]: 0.2; solubility [8]: 520 µM (≈ 146 µg/mL)
O=C(CCC1CCCCCC1)Nc1nnc2n1CCS2 | 2180 nM | 26 nM | 
O=C(CCc1ccccc1)Nc1nnc2n1CCS2 | 1670 nM | 39 nM | 
O=C(CCCC1CCCCC1)Nc1nnc2n1CCS2 | 4520 nM | 89 nM | 
O=C(CCCc1ccccc1)Nc1nnc2n1CCS2 | 6460 nM | 303 nM | 
O=C(NCc1ccccc1)Nc1nnc2n1CCS2 | 17600 nM | 444 nM | 
O=C(CCC1CCNCC1)Nc1nnc2n1CCS2 | > 50000 nM | 2320 nM | 
O=C(CCc1ccccc1F)Nc1nnc2n1CCS2 | 345 nM | 12 nM | 
O=C(CCc1ccccc1Cl)Nc1nnc2n1CCS2 | 50 nM | 5 nM | IC50 [4]: 14 nM; IC50 [5]: 1400 nM; hepatic extraction ratio [6]: 0.9; hepatic extraction ratio [7]: 0.66; solubility [8]: 32 µM (≈ 9.88 µg/mL)
O=C(CCc1c(Cl)cccc1Cl)Nc1nnc2n1CCS2 | 29 nM | 3 nM | IC50 [3]: > 19000 nM; clearance [21]: 45.6 mL/min/kg; Vd [22]: 1.1 L/kg; IC50 [4]: 12 nM; IC50 [5]: 377 nM; hepatic extraction ratio [6]: 0.91; hepatic extraction ratio [7]: 0.61; solubility [8]: 16 µM (≈ 5.49 µg/mL); IC50 [20]: > 19000 nM
Cc1cccc(C)c1CCC(=O)Nc1nnc2n1CCS2 | 1210 nM | 33 nM | 
O=C(CCc1cccc(Cl)c1Cl)Nc1nnc2n1CCS2 | 20 nM | 1 nM | IC50 [3]: 3800 nM; IC50 [4]: 7 nM; IC50 [5]: > 10000 nM; hepatic extraction ratio [6]: 0.92; IC50 [20]: > 19000 nM
O=C(CCc1ccc(Cl)cc1Cl)Nc1nnc2n1CCS2 | 116 nM | 5 nM | IC50 [3]: 4700 nM; IC50 [4]: 24 nM; IC50 [5]: > 10000 nM; hepatic extraction ratio [6]: 0.91; IC50 [20]: > 19000 nM
O=C(CCc1cccnc1)Nc1nnc2n1CCS2 | 6290 nM | 138 nM | 
O=C(CCc1ccncc1)Nc1nnc2n1CCS2 | 12700 nM | 134 nM | 
O=C(CCc1ccco1)Nc1nnc2n1CCS2 | 5350 nM | 88 nM | 
O=C(CCn1cncn1)Nc1nnc2n1CCS2 | > 10000 nM | 1790 nM | 
